SMILES strings stand for the structures.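 Grown in 96-well plates, cells were treated for 48 hours with each compound at five concentrations. Insufficient inhibition: endpoint recorded as highest concentration tested. GI50 = concentration required for 50% inhibition of growth. At the TGI there is no net growth.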 *1 amine or outer side, *2 acyl side, *3 side chain or, on linkers, in order; H or OH if unused. Where a SMILES comes first, the peptide text is derived from it. [ ]: non-standard residue; d: D form. ξ: configuration not given here. X21 = CC[C@@H](C)C(N[*:1])C(=O)[*:2]; ξR = N=C(N)NCCCC(N)C(=O)O; ξI = CCC(C)C(N)C(=O)O; ξL = CC(C)CC(N)C(=O)O; ξK = NCCCCC(N)C(=O)O; ξV = CC(C)C(N)C(=O)O; ξA = CC(N)C(=O)O A value given as a limit tells only on which side of the number the result lay.

What all share (experiment): DTP human tumour cell line panel, 48 h
For test [1], the system named is ACHN renal.
The subject of test [2] is HCT-15 colon.
The subject of test [3] is UACC-62 melanoma.
For test [4], the system named is HT29 colon.
The test system of test [5] is KM12 colon.
Test [6] concerns MOLT-4 leukemia.
The test system of test [7] is MALME-3M melanoma.
Test [8] relates to MCF7 breast.
For test [9], the system named is SN12C renal.
Test [10] relates to MDA-MB-435.

Usually GI50 stands for the concentration giving 50% growth inhibition. The term TGI denotes the concentration at which net growth stops. A lower TGI goes with more potent growth arrest. As for `CN(C)CCCn1c2nc(=O)[nH]c(=O)c-2nc2cc(Cl)c(Cl)cc21`, the GI50 is 3.46 µM in [1]; 4.03 µM in test [2]; 4.22 µM in test [3]; 2.13 µM in [4]; 8.2 µM in [5]; 4.35 µM in test [6]. The GI50 was 9.28 µM in test [7], 0.398 µM in test [8], 3.09 µM in [9] and 2.14 µM in test [10]. The concentration for total growth inhibition (TGI) was 11.8 µM in test [1]; 21.5 µM in test [2]; 14.9 µM in [3]; 11.9 µM in [4]; 26 µM in [5]; 22.8 µM in test [6]. Besides, the TGI in test [7] worked out at 26.8 µM; in test [8] it was 1.64 µM; in [9], 10.1 µM; in [10] it was 5.2 µM.
Turning to `COc1ccc2c(c1)C1(C(=O)N2)C(C#N)=C(c2ccccc2)Nc2c1c(-c1ccccc1)nn2-c1ccccc1` (stereo not given), the GI50 was 6.16 µM in test [1]; 11 µM in test [2]; 5.36 µM in test [3]; 2.34 µM in test [4]; 2.66 µM in test [5]; 3.37 µM in [6]. The GI50 in test [7] was 1.73 µM; in [8], 2.09 µM; in [9], 1.94 µM; in test [10] it was 2.16 µM. Moreover, the TGI came to 19.4 µM in test [1]; 26.8 µM in test [2]; 18.2 µM in test [3]; 5.82 µM in test [4]; 7.26 µM in test [5]; 11 µM in [6]. In addition, the total growth inhibition concentration (TGI) in test [7] was determined as 3.84 µM; in [8], 6.79 µM; in test [9], 3.71 µM; in [10], 5.29 µM.
Turning to `COc1ccc(/C=C/NC=O)cc1`, the concentration for total growth inhibition (TGI) in test [1], in test [2], in [3], in test [4], in test [5] and in test [6] was greater than 100 µM in each case. The TGI in test [7], in test [8], in [9] and in [10] was greater than 100 µM throughout.
In the case of `NS(=O)(=O)c1ccc(NC(=O)c2cccc3cc4ccccc4nc23)cc1`, the TGI is greater than 100 µM in test [1]; greater than 100 µM in test [2]; greater than 100 µM in test [3]; greater than 100 µM in test [4]; greater than 100 µM in test [5]; 68.4 µM in test [6]. The TGI in test [7], in test [8], in test [9] and in [10] was greater than 100 µM in each case.
On to `N#C/C(=C\c1ccc(Br)cc1)n1nnc2ccccc21`, for which the GI50 in test [1] was 0.521 µM; in [2] it was 0.273 µM; in test [3], 0.358 µM; in test [4], 0.411 µM; in test [5] it was 0.512 µM; in [6], 1.48 µM. Also, the GI50 in test [7] was 0.727 µM; in test [8], 0.303 µM; in [9], 0.525 µM; in [10], 0.191 µM. The total growth inhibition concentration (TGI) in test [1] stood at 2.01 µM; in [2], 3.03 µM; in [3], 1.59 µM; in test [4], 2.25 µM; in [5], 2.33 µM; in [6], 11.4 µM. In addition, the TGI in [7] was determined as 2.78 µM; in [8], 6.2 µM; in test [9], 3.48 µM; in test [10], 0.438 µM.
Turning to `CNCCCNCCCN1C(=O)c2ccc3c4c(ccc(c24)C1=O)C(=O)N(CCCNCc1ccccc1OC)C3=O`, the GI50 in test [1] is 0.5 µM; in test [2] it was 2.36 µM; in test [3], 1.52 µM; in test [4], 0.381 µM; in test [5] it was 1.18 µM; in test [6], 0.534 µM. Moreover, the GI50 in test [7] is 0.633 µM; in test [8] it was 0.512 µM; in [9], 1.46 µM; in test [10], 1.07 µM. In addition, the concentration for total growth inhibition (TGI) in test [1] was 3.96 µM; in test [2] it was 12.2 µM; in [3], 3.51 µM; in test [4], 1.95 µM; in [5], 3.36 µM; in test [6], 3.55 µM. The TGI stood at 1.96 µM in test [7], 3.21 µM in test [8], 3.41 µM in test [9] and 2.91 µM in [10].
As to `CCC(C)C1NC(=O)C(CC(C)C)NC(=O)C(C)NC(=O)C(C(C)C)NC(=O)C(CCCCN)NC(=O)C(CC(C)C)NC(=O)C(C(C)C)NC(=O)[C@H](C)NC(=O)C(C(C)CC)NC(=O)C(CCCN=C(N)N)NC(=O)C(CCCCN)NC(=O)C(CCCN=C(N)N)NC(=O)C(CCCCN)NC(=O)C([C@H](C)CC)NC(=O)C(CCCCN)NC1=O` (stereo not given in full) (cyclo(A[ξV][ξL][ξK][ξV][ξA][ξL][ξI][ξK][X21][ξK][ξR][ξK][ξR][ξI])), the GI50 in [1] was 1.79 µM; in [2], 1.48 µM; in [3] it was 1.26 µM; in test [4], 2.59 µM; in [5], 1.73 µM; in [6], 0.752 µM. Further, the GI50 is 1.12 µM in test [7], 1.54 µM in [8], 1.37 µM in [9] and 1.51 µM in test [10]. Also, the TGI was determined as 4.5 µM in test [1]; 3.58 µM in test [2]; 2.85 µM in [3]; 10.3 µM in [4]; 3.9 µM in test [5]; 2.82 µM in test [6]. The TGI in test [7] came out at 2.58 µM; in test [8], 5.65 µM; in test [9], 3.32 µM; in test [10], 3.33 µM.
`CS(=O)(=O)OCCN(CCOS(C)(=O)=O)c1ccc(C=O)cc1`: the TGI in test [1] was determined as 2.69 µM; in test [2], 47.4 µM; in [3], 14.5 µM; in test [4], 57.9 µM; in [5], 29.5 µM; in [6], 4.84 µM. In addition, the TGI was 26.7 µM in [7], greater than 75.9 µM in [8], 41.3 µM in [9] and 24.6 µM in [10].

(Values after PubChem BioAssay (NCI).)
